These results are taken from patent US10517889B2, “Modulators of SMAD7 expression” (Ionis Pharmaceuticals, Inc., priority 2017, dated 2019).

Strand notation (5' to 3'): a small letter for the sugar, then the base; units joined by * are phosphorothioate-linked, units joined directly phosphodiester-linked; [ ] holds rarer units or linkages, { } end groups; capitals alone tell only the bases. k = constrained ethyl (cEt); [5mC] = 5-methylcytosine; d = 2'-deoxy (DNA)

The series deals with human SMAD7 mRNA. Nature of the series: Antisense inhibition of human SMAD7 mRNA expression in Hep3B cells by 3-10-3 cEt gapmers, 10,000 nM, electroporation (Example 2). Format: cell-based. As to conditions: Hep3B cells, electroporation with 10,000 nM antisense oligonucleotide, approximately 24 hours, SMAD7 mRNA by RT-PCR (RTS5062), relative to untreated control cells. Put shortly: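 SMAD7 mRNA was measured by real-time PCR (RTS5062) with RiboGreen total-RNA normalization, about 24 h after 10,000 nM gapmer was delivered by electroporation into Hep3B cells at 20,000 per well. Gapmers were 16-mer 3-10-3 cEt, fully phosphorothioate; values are % inhibition versus untreated controls.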
One may read the % Inhibition as the share of the control response that was lost under treatment. Low readings indicate a weak effect, high ones a strong effect. In the case of “830104 (kT*kA*kA*dG*d[5mC]*d[5mC]*d[5mC]*dG*d[5mC]*dT*d[5mC]*dT*d[5mC]*kA*kG*k[5mC]; antisense) [compound 830104]”, the “% Inhibition” value stood at 28%.
With “830105 (kT*kT*kA*dA*dG*d[5mC]*d[5mC]*d[5mC]*dG*d[5mC]*dT*d[5mC]*dT*k[5mC]*kA*kG; antisense) [compound 830105]”, the “% Inhibition” value came out at 48%.
Take “830106 (k[5mC]*kA*kT*dT*dA*dA*dG*d[5mC]*d[5mC]*d[5mC]*dG*d[5mC]*dT*k[5mC]*kT*k[5mC]; antisense) [compound 830106]”: the “% Inhibition” value worked out at 33%.
To “830107 (kT*k[5mC]*kA*dT*dT*dA*dA*dG*d[5mC]*d[5mC]*d[5mC]*dG*d[5mC]*kT*k[5mC]*kT; antisense) [compound 830107]” belongs 50%; to “830108 (kT*kT*k[5mC]*dA*dT*dT*dA*dA*dG*d[5mC]*d[5mC]*d[5mC]*dG*k[5mC]*kT*k[5mC]; antisense) [compound 830108]”, 54%.
In the case of “830109 (kA*kT*kT*d[5mC]*dA*dT*dT*dA*dA*dG*d[5mC]*d[5mC]*d[5mC]*kG*k[5mC]*kT; antisense) [compound 830109]”, the “% Inhibition” value is recorded as 44%.
Consider “830110 (k[5mC]*k[5mC]*kA*dT*dT*d[5mC]*dA*dT*dT*dA*dA*dG*d[5mC]*k[5mC]*k[5mC]*kG; antisense) [compound 830110]”, for which the “% Inhibition” value is 36%.
With “830111 (k[5mC]*k[5mC]*k[5mC]*dA*dT*dT*d[5mC]*dA*dT*dT*dA*dA*dG*k[5mC]*k[5mC]*k[5mC]; antisense) [compound 830111]”, the “% Inhibition” value came to 38%.
With “830112 (kG*k[5mC]*k[5mC]*d[5mC]*d[5mC]*dA*dT*dT*d[5mC]*dA*dT*dT*dA*kA*kG*k[5mC]; antisense) [compound 830112]”, the “% Inhibition” value was 23%.
Turning to “830113 (kA*kG*k[5mC]*d[5mC]*d[5mC]*d[5mC]*dA*dT*dT*d[5mC]*dA*dT*dT*kA*kA*kG; antisense) [compound 830113]”, the “% Inhibition” value came to 36%.
For “830114 (kG*kA*kG*d[5mC]*d[5mC]*d[5mC]*d[5mC]*dA*dT*dT*d[5mC]*dA*dT*kT*kA*kA; antisense) [compound 830114]” the value was 22%; for “830115 (kA*k[5mC]*k[5mC]*d[5mC]*dT*dA*dA*dA*d[5mC]*dT*dG*dA*dG*k[5mC]*k[5mC]*k[5mC]; antisense) [compound 830115]”, 9%.
For the substance “830116 (k[5mC]*kA*k[5mC]*d[5mC]*d[5mC]*dT*dA*dA*dA*d[5mC]*dT*dG*dA*kG*k[5mC]*k[5mC]; antisense) [compound 830116]”, the “% Inhibition” value is listed as 11%.
Consider “830117 (k[5mC]*k[5mC]*kA*d[5mC]*d[5mC]*d[5mC]*dT*dA*dA*dA*d[5mC]*dT*dG*kA*kG*k[5mC]; antisense) [compound 830117]”, for which the “% Inhibition” value stood at 5%.
For “830118 (kT*k[5mC]*k[5mC]*d[5mC]*dA*d[5mC]*d[5mC]*d[5mC]*dT*dA*dA*dA*d[5mC]*kT*kG*kA; antisense) [compound 830118]” the value was 0%.
On to “830119 (k[5mC]*k[5mC]*kG*dA*d[5mC]*d[5mC]*dT*dT*d[5mC]*d[5mC]*dT*d[5mC]*d[5mC]*k[5mC]*kA*k[5mC]; antisense) [compound 830119]”, for which the “% Inhibition” value is 24%.
For “830120 (kG*k[5mC]*k[5mC]*dG*dA*d[5mC]*d[5mC]*dT*dT*d[5mC]*d[5mC]*dT*d[5mC]*k[5mC]*k[5mC]*kA; antisense) [compound 830120]”, the “% Inhibition” value is reported as 27%.
As to “830123 (antisense kG*kG*k[5mC]*dA*d[5mC]*d[5mC]*dA*d[5mC]*dA*dT*dT*dT*dT*k[5mC]*kA*k[5mC]) [compound 830123]”, the “% Inhibition” value is 44%.
Turning to “830124 (antisense k[5mC]*k[5mC]*kG*dA*dG*dG*d[5mC]*dA*d[5mC]*d[5mC]*dA*d[5mC]*dA*kT*kT*kT) [compound 830124]”, the “% Inhibition” value was found to be 27%.
To “830125 (antisense kT*k[5mC]*k[5mC]*dG*dA*dG*dG*d[5mC]*dA*d[5mC]*d[5mC]*dA*d[5mC]*kA*kT*kT) [compound 830125]” belongs 46%; to “830126 (antisense k[5mC]*kT*k[5mC]*d[5mC]*dG*dA*dG*dG*d[5mC]*dA*d[5mC]*d[5mC]*dA*k[5mC]*kA*kT) [compound 830126]”, 34%.
Consider “830127 (antisense k[5mC]*k[5mC]*kT*d[5mC]*d[5mC]*dG*dA*dG*dG*d[5mC]*dA*d[5mC]*d[5mC]*kA*k[5mC]*kA) [compound 830127]”, for which the “% Inhibition” value amounted to 62%.
With “830129 (antisense k[5mC]*kA*k[5mC]*d[5mC]*dT*d[5mC]*d[5mC]*dG*dA*dG*dG*d[5mC]*dA*k[5mC]*k[5mC]*kA) [compound 830129]”, the “% Inhibition” value is recorded as 41%.
Take “830130 (antisense k[5mC]*k[5mC]*kA*d[5mC]*d[5mC]*dT*d[5mC]*d[5mC]*dG*dA*dG*dG*d[5mC]*kA*k[5mC]*k[5mC]) [compound 830130]”: the “% Inhibition” value is 32%.
In the case of “830132 (antisense kT*kA*k[5mC]*d[5mC]*d[5mC]*dG*d[5mC]*d[5mC]*d[5mC]*dA*d[5mC]*dT*d[5mC]*k[5mC]*k[5mC]*k[5mC]) [compound 830132]”, the “% Inhibition” value is 8%.
For “830133 (antisense kA*k[5mC]*kA*dA*dT*d[5mC]*dT*d[5mC]*d[5mC]*dT*dG*dG*dA*kA*kG*k[5mC]) [compound 830133]” the value was 26%.
Consider “830134 (antisense kA*kG*kT*dA*d[5mC]*dA*dA*dT*d[5mC]*dT*d[5mC]*d[5mC]*dT*kG*kG*kA) [compound 830134]”, for which the “% Inhibition” value is recorded as 61%.
With “830136 (antisense kG*kA*kA*dA*dG*dT*dA*d[5mC]*dA*dA*dT*d[5mC]*dT*k[5mC]*k[5mC]*kT) [compound 830136]”, the “% Inhibition” value was determined as 64%.
As to “830139 (antisense kT*kG*kG*dA*dG*dT*dT*dG*d[5mC]*dA*dT*dG*d[5mC]*k[5mC]*kT*kT) [compound 830139]”, the “% Inhibition” value is given as 45%.
To “830140 (antisense kT*k[5mC]*k[5mC]*dT*dA*dA*dG*d[5mC]*dT*dA*d[5mC]*dT*dT*kG*kG*kT) [compound 830140]” belongs 12%; to “830141 (antisense kG*kG*k[5mC]*dA*dT*dT*dA*dG*dA*dG*dA*d[5mC]*d[5mC]*kT*k[5mC]*kA) [compound 830141]”, 58%; to “830143 (antisense kG*kG*kT*dG*dT*dG*d[5mC]*dA*d[5mC]*d[5mC]*dA*dG*dG*kT*kG*kA) [compound 830143]”, 62%.
With “830145 (antisense kT*kG*kG*dG*dT*dG*dT*dG*d[5mC]*dA*d[5mC]*d[5mC]*dA*kG*kG*kT) [compound 830145]”, the “% Inhibition” value is 47%.
On to “830146 (antisense kT*kG*kG*dT*d[5mC]*dT*dT*d[5mC]*dA*d[5mC]*d[5mC]*dA*dG*kG*kG*kT) [compound 830146]”, for which the “% Inhibition” value is recorded as 62%.
For the substance “830147 (antisense kG*kA*k[5mC]*dT*dG*dG*dT*d[5mC]*dT*dT*d[5mC]*dA*d[5mC]*k[5mC]*kA*kG) [compound 830147]”, the “% Inhibition” value was 0%.
“830148 (antisense kG*kG*kA*d[5mC]*dT*dG*dG*dT*d[5mC]*dT*dT*d[5mC]*dA*k[5mC]*k[5mC]*kA) [compound 830148]”: the “% Inhibition” value was determined as 19%.
Turning to “830149 (antisense kA*kG*kG*dA*d[5mC]*dT*dG*dG*dT*d[5mC]*dT*dT*d[5mC]*kA*k[5mC]*k[5mC]) [compound 830149]”, the “% Inhibition” value is 47%.
Turning to “830150 (antisense k[5mC]*kA*kG*dT*dG*dG*dT*dG*dA*d[5mC]*d[5mC]*dT*d[5mC]*k[5mC]*k[5mC]*kT) [compound 830150]”, the “% Inhibition” value turned out to be 51%.
As to “830151 (antisense kG*k[5mC]*k[5mC]*dA*dG*dT*dG*dG*dT*dG*dA*d[5mC]*d[5mC]*kT*k[5mC]*k[5mC]) [compound 830151]”, the “% Inhibition” value is reported as 45%.
For “830152 (antisense k[5mC]*k[5mC]*k[5mC]*dG*dG*dA*dG*dA*dG*dG*dA*dA*dG*k[5mC]*k[5mC]*kT) [compound 830152]” the value was 23%.
In the case of “830153 (antisense kG*k[5mC]*k[5mC]*dT*d[5mC]*dA*dG*d[5mC]*dA*dG*dT*dT*dA*kA*kT*kA) [compound 830153]”, the “% Inhibition” value is reported as 21%.
As for “830154 (antisense kG*kT*kG*d[5mC]*d[5mC]*dT*d[5mC]*dA*dG*d[5mC]*dA*dG*dT*kT*kA*kA) [compound 830154]”, the “% Inhibition” value is reported as 48%.
On to “830155 (antisense kT*kG*kT*dG*d[5mC]*d[5mC]*dT*d[5mC]*dA*dG*d[5mC]*dA*dG*kT*kT*kA) [compound 830155]”, for which the “% Inhibition” value was found to be 38%.
To “830156 (antisense k[5mC]*kT*kG*dT*dG*d[5mC]*d[5mC]*dT*d[5mC]*dA*dG*d[5mC]*dA*kG*kT*kT) [compound 830156]” belongs 48%.
Take “830158 (antisense kA*kA*kT*dT*dG*dA*dG*dA*dA*d[5mC]*dT*dG*dT*kG*k[5mC]*k[5mC]) [compound 830158]”: the “% Inhibition” value is reported as 43%.
As for “830159 (antisense k[5mC]*k[5mC]*kA*d[5mC]*dT*dA*dA*dA*dT*dT*dG*dA*dG*kA*kA*k[5mC]) [compound 830159]”, the “% Inhibition” value is on record as 42%.
As for “830160 (antisense kT*kG*kG*dT*dG*dT*dG*dT*dT*dA*dA*d[5mC]*d[5mC]*kA*k[5mC]*kT) [compound 830160]”, the “% Inhibition” value amounted to 54%.
Turning to “830161 (antisense kA*kG*kG*dT*dG*dA*dA*dA*dG*dT*dT*dA*dT*k[5mC]*kA*k[5mC]) [compound 830161]”, the “% Inhibition” value came out at 13%.
For “830162 (antisense kA*k[5mC]*kA*dA*dG*dG*dT*dG*dA*dA*dA*dG*dT*kT*kA*kT) [compound 830162]”, the “% Inhibition” value is on record as 20%.
